Measurements as given in patent publication US20140066365A1, “USE OF CALIXARENES ASSOCIATED WITH AN ANTIBIOTIC IN THE TREATMENT OF BACTERIAL INFECTIONS” (priority 2011, published 2014).
Values after ≈ are worked out from the molar mass of the structure shown. Like-named read-outs stand apart in the source and are kept apart here.

What was measured:
[1] = tested on: SaR1: Meticillin-Resistant Staphylococcus aureus without Associated Resistance; test: Antibiogram, MIC by the VITEK 2 system; type: cell-based; details: SaR1
Method: (§1) The bacterial and antibiogramidentification is carried out by the VITEK 2 system (bioMérieux)

[2] = tested on: SaR1: Meticillin-Resistant Staphylococcus aureus without Associated Resistance; test: Antibiogram, inhibition diameter (Table D1); type: cell-based
Method: as §1

[3] = tested on: SaR3: Meticillin-Resistant Staphylococcus aureus; test: Antibiogram by the disk diffusion technique; type: cell-based
Method: (§2) The bacterial and antibiogramidentification is carried out by the VITEK 2 system (bioMérieux) and by the disk diffusion technique

[4] = tested on: SaR4: Meticillin-Resistant Staphylococcus aureus; test: Antibiogram, MIC by the VITEK 2 system; type: cell-based; details: SaR4; for MIC: Staphylococcus aureus, read-out: MIC
Method: as §2

[5] = tested on: MRSA strain having a resistance to the aminoglycosides and fluoroquinolones (SaR3); test: MIC of the compounds used alone, microdilution in a liquid medium (CLSI); type: cell-based, Staphylococcus aureus; details: Staphylococcus aureus, MRSA; antibiotic alone (second value of cell); SaR3; read-out: MIC
Source text: (§3) The MICs of the antibiotics were previously defined for each strain, by the method of microdilution in a liquid medium (CLSI (Clinical and Laboratory Standards Institute), 2003).

[6] = tested on: MRSA strain without associated resistance (SaR1); test: as above; type: cell-based, Staphylococcus aureus; details: Staphylococcus aureus, MRSA; antibiotic alone (second value of cell); SaR1; read-out: MIC
Source text: as §3

[7] = as above; type: cell-based, Staphylococcus aureus; details: Staphylococcus aureus, MRSA; antibiotic alone (second value of cell); SaR4; read-out: MIC
Source text: as §3

[8] = tested on: Escherichia coli, Staphylococcus aureus and Pseudomonas aeruginosa strains; test: Chessboard technique, summary statements over all strains and combinations tested; type: cell-based; details: strain not stated
Source text: 1.3. Procedure: Chessboard Technique
The same procedure is followed for the Cx1. […] Thus 64 ATB/Cx1 combinations are obtained.
The FIC (Fractional Inhibitory Concentration Index) value is defined by the following formula: […]
When FIC≦0.5, there is a synergistic effect between antibiotic A and antibiotic B.
When 0.5<FIC≦1, there is an additive effect between antibiotic A and antibiotic B.
When 1<FIC≦4, there is an indifferent effect between antibiotic A and antibiotic B.
When FIC>4, there is an antagonistic effect between antibiotic A and antibiotic B.
For each strain and each antibiotic/Cx1 combination, the experiments were repeated a minimum of 3 times.

[9] = tested on: Staphylococcus aureus strain ATCC 29213 (wild type); test: MIC of the compounds used alone, microdilution in a liquid medium (CLSI); type: cell-based; details: Staphylococcus aureus, ATCC29213; antibiotic alone (second value of cell); S. aureus ATCC 29213; read-out: Initial MICs
Source text: as §3

[10] = tested on: PaR3: Pseudomonas aeruginosa; test: Antibiogram, MIC by the VITEK 2 system; type: cell-based
Method: as §1

[11] = tested on: EcR2: Cephalosporinase-Hyperproducing Strain of Escherichia coli; test: Antibiogram by the disk diffusion technique; type: cell-based
Method: The bacterial and antibiogramidentification is carried out by the VITEK 1 system (bioMérieux) and by the disk diffusion technique

[12] = tested on: PaR5: Pseudomonas aeruginosa; test: Antibiogram by the disk diffusion technique; type: cell-based
Method: as §2

[13] = tested on: PaR2: Pseudomonas aeruginosa; type: cell-based
Method: as §2

[14] = tested on: EcR1: Penicillinase-Producing Escherichia coli without Associated Resistance; test: Antibiogram, MIC by the VITEK 2 system; type: cell-based; details: for MIC: Escherichia coli
Method: 5.1 EcR1: Penicillinase-Producing Escherichia coli without Associated Resistance The bacterial and antibiogramidentification is carried out by the VITEK 2 system (bioMérieux) and by the disk diffusion technique.

[15] = tested on: Pseudomonas aeruginosa strain PaR2; test: microbe, parasite or virus in culture; type: cell-based; details: Pseudomonas aeruginosa, antibiotic alone (second value of cell), read-out: MIC
Source text: as §3

[16] = tested on: penicillinase-producing strain of Escherichia coli without associated resistance (EcR1); test: MIC of the compounds used alone, microdilution in a liquid medium (CLSI); type: cell-based; details: Escherichia coli, antibiotic alone (second value of cell), read-out: Initial MICs
Source text: as §3

[17] = tested on: mucoid strain of Pseudomonas aeruginosa PaR5; test: as above; type: cell-based; details: Pseudomonas aeruginosa, antibiotic alone (second value of cell), read-out: MIC
Source text: as §3

[18] = tested on: Pseudomonas aeruginosa strain ATCC 27853 (wild type); test: as above; type: cell-based; details: Pseudomonas aeruginosa, ATCC27853; antibiotic alone (second value of cell); P. aeruginosa ATCC 27853; read-out: MIC
Source text: as §3

[19] = tested on: cephalosporinase-hyperproducing strain of Escherichia coli (EcR2); test: as above; type: cell-based; details: Escherichia coli, antibiotic alone (second value of cell), read-out: Initial MICs
Source text: as §3

[20] = tested on: Pseudomonas aeruginosa strain PaR3; test: as above; type: cell-based; details: Pseudomonas aeruginosa, antibiotic alone (second value of cell), read-out: MIC
Source text: as §3

[21] = tested on: Escherichia coli strain ATCC 25922 (wild type); test: as above; type: cell-based; details: Escherichia coli, ATCC25922; antibiotic alone (second value of cell); E. coli ATCC 25922; read-out: Initial MICs
Source text: as §3

[22] = tested on: ESBL-producing strain of Escherichia coli, having an associated resistance to the aminoglycosides (EcR3); test: as above; type: cell-based; details: Escherichia coli, antibiotic alone (second value of cell), read-out: Initial MICs
Source text: as §3

CC(=O)O[C@H]1C[C@@]2(C)[C@@H](C[C@@H](O)[C@H]3[C@@]4(C)CC[C@@H](O)[C@@H](C)[C@@H]4CC[C@@]32C)/C1=C(\CCC=C(C)C)C(=O)O [Fusidic acid]
CA-SFM Interpretation ([1]; Cc CA-SFM 2011): Susceptible
EUCAST Interpretation ([1]; Cc EUCAST 2011): Susceptible
Results ([1]; Table D1, from MIC): Susceptible
MIC mg/L ([1]; Table D2): ≦0.5 mg/L
MIC ([1]; Staphylococcus aureus, Table D1, read-out: MIC): ≤ 0.5 µg/mL
Diameter [2]: 28 mm
Results ([2]; from diameter, against Dmin Dmax): Susceptible
CA-SFM Interpretation ([3]; Cd CA-SFM 2011): Susceptible
EUCAST Interpretation ([3]; Cd EUCAST 2011): Susceptible
Diameter ([3]; Table E1): 29 mm
Results ([3]; Table E1, against Dmin Dmax): Susceptible
diameter in mm ([3]; Table E2): 29 mm
Results ([4]; Table F1, MIC): Susceptible
CA-SFM Interpretation ([4]; from MIC, Cc CA-SFM 2011): Susceptible
EUCAST Interpretation ([4]; from MIC, Cc EUCAST 2011): Susceptible
MIC ([4]; Table F1): ≤ 1 µg/mL
MIC ([4]; Table F2, MIC): ≤ 1 µg/mL
MIC [5]: 0.25 µg/mL
MIC [6]: 0.5 µg/mL
MIC [7]: 4 µg/mL
interaction between the antibiotic and Cx1 [8]: synergism
MIC [9]: 2 µg/mL

CC(C)(O/N=C(\C(=O)N[C@@H]1C(=O)N2C(C(=O)[O-])=C(C[n+]3ccccc3)CS[C@H]12)c1csc(N)n1)C(=O)O [Ceftazidime]
CA-SFM Interpretation ([10]; Cc CA-SFM 2011): Susceptible
CLSI Interpretation ([10]; Cc CLSI 2011): Susceptible
EUCAST Interpretation ([10]; Cc EUCAST 2011): Susceptible
MIC ([10]; Pseudomonas aeruginosa, Table H2, read-out: MIC): 4 µg/mL (≈ 7.32 µM)
MIC ([10]; Table H1): 4 µg/mL (≈ 7.32 µM)
Results ([10]; Table H1): Susceptible
Diameter ([11]; EcR2, disk diffusion, Table B1): 20
Results ([11]; EcR2, rows that print a diameter, Table B1): Intermediate
Diameter ([11]; EcR2, Table B2, diameters): 20 mm
CA-SFM Interpretation ([11]; EcR2, from diameter, CA-SFM 2011): Resistant
CLSI Interpretation ([11]; EcR2, from diameter, CLSI 2011): Intermediate
EUCAST Interpretation ([11]; EcR2, from diameter, EUCAST 2011): Intermediate
Diameter ([12]; PaR5, Table I1): 32 mm
Results ([12]; PaR5, Table I1, against Dmin-Dmax): Susceptible
diameter in mm ([12]; disk diffusion inhibition diameter, strain PaR5): 32 mm
CA-SFM Interpretation ([12]; disk diffusion, PaR5, versus critical diameter CA-SFM 2011): Susceptible
CLSI Interpretation ([12]; disk diffusion, PaR5, versus critical diameter CLSI 2011): Susceptible
EUCAST Interpretation ([12]; disk diffusion, PaR5, versus critical diameter EUCAST 2011, for ** antibiotics the disk load differs and the EUCAST interpretation is not applicable): Susceptible
CA-SFM Interpretation ([13]; Cd CA-SFM 2011): Susceptible
CLSI Interpretation ([13]; Cd CLSI 2011): Susceptible
EUCAST Interpretation ([13]; Cd EUCAST 2011): Susceptible
Diameter ([13]; Table G1): 23 mm
Results ([13]; Table G1, against Dmin-Dmax): Susceptible
diameter in mm ([13]; Table G2): 23 mm
CA-SFM Interpretation ([14]; EcR1, MIC against Cc CA-SFM 2011): Susceptible
CLSI Interpretation ([14]; EcR1, MIC against Cc CLSI 2011): Susceptible
EUCAST Interpretation ([14]; EcR1, MIC against Cc EUCAST 2011): Susceptible
Results ([14]; EcR1, interpretation of the MIC, Table A1): Susceptible
MIC ([14]; EcR1, Table A2, read-out: MIC mg/L (diameter in mm)): ≤ 1 mg/L
MIC ([14]; EcR1, VITEK 2, Table A1, read-out: MIC): ≤ 1 mg/L
interaction between the antibiotic and Cx1 [8]: synergism
MIC [15]: 8 µg/mL (≈ 14.6 µM)
MIC [16]: 0.25 µg/mL
MIC [17]: 8 µg/mL
MIC [18]: 4 µg/mL
MIC [19]: 8 µg/mL
MIC [20]: 16 µg/mL
MIC [21]: 0.125 µg/mL
MIC [22]: 1 µg/mL
